Laboratory results taken from patent US10194663B2, “Chemical stabilization of iodosulfuron-methyl sodium salt by hydroxystearates” (BAYER CROPSCIENCE AG, priority 2012, dated 2019).

Experiment: Storage stability: degradation of IMS in OD formulations, determined by HPLC
Type: physicochemical
Settings: for Degradation of IMS after 1 week at 54° C. / Degradation of IMS after 4 weeks at 40° C. / Degradation of IMS after 8 weeks at 40° C. / Degradation of IMS after 12 weeks at 35° C. / Degradation of IMS after 2 weeks at 54° C. / Degradation of IMS after 8 weeks at 40° C0: Emulsogen EL 400 10%
Text: The sodium salt of iodosulfuron-methyl (iodosulfuron-methyl-sodium, IMS) is finely dispersed by means of a rotor-stator mixer together with a customary emulsifier such as Emulsogen EL 400® (castor oil polyglycol ether from Clariant AG) in the solvents customary for OD formulations (oil dispersion formulations), such as rapeseed oil methyl ester or Solvesso 200 ND® (aromatics mixture from Exxon AG). Further formulation auxiliaries such as the thickener Bentone 38® (sheet silicate from Elementis AG) or the polymers Ligalub PEG 400 MO® (polyethylene glycol monooleate from Peter Greven GmbH), Ligalub 12 GE® (glyceryl dioleate from Peter Greven GmbH) or Ligalub 71 KE® (complex ester from Peter Greven GmbH) can, inter alia, also be added to the system. Furthermore, lithium hydroxystearate (lithium soap of a 12-hydroxystearic acid) was also additionally added for comparison purposes to each mixture.
Tables 1 to 9 show the compositions of the tested OD formulations (% data in % by weight).
The degradation of the IMS is determined here by means of HPLC.
The degradation is expressed here in tables 1 to 9 in—xx %. This means that after the relevant period xx % of the originally present IMS was already degraded.

[1] = Table 1 OD formulation: IMS 0.5%, Lithium hydroxystearate 0%, Bentone 38 1.2%, Rapeseed oil methyl ester 88.3%
[2] = Table 1 OD formulation: IMS 0.5%, Lithium hydroxystearate 1%, Bentone 38 1.2%, Rapeseed oil methyl ester 87.3%
[3] = Table 2 OD formulation: IMS 0.5%, Lithium hydroxystearate 0%, Solvesso 200 ND 89.5%
[4] = Table 2 OD formulation: IMS 0.5%, Lithium hydroxystearate 0.5%, Solvesso 200 ND 89%
[5] = Table 2 OD formulation: IMS 0.5%, Lithium hydroxystearate 1%, Solvesso 200 ND 88.5%
[6] = Table 2 OD formulation: IMS 0.5%, Lithium hydroxystearate 5%, Solvesso 200 ND 84.5%
[7] = Table 3 OD formulation: IMS 2%, Lithium hydroxystearate 0%, Solvesso 200 ND 88%
[8] = Table 3 OD formulation: IMS 2%, Lithium hydroxystearate 1%, Solvesso 200 ND 87%
[9] = Table 4 OD formulation: IMS 0.5%, Lithium hydroxystearate 0%, Ligalub PEG 400 MO 15%, Solvesso 200 ND 74.5%
[10] = Table 4 OD formulation: IMS 0.5%, Lithium hydroxystearate 1%, Ligalub PEG 400 MO 15%, Solvesso 200 ND 73.5%
[11] = Table 5 OD formulation: IMS 0.5%, Lithium hydroxystearate 0%, Ligalub PEG 400 MO 30%, Bentone 38 1.2%, Rapeseed oil methyl ester 58.3%
[12] = Table 5 OD formulation: IMS 0.5%, Lithium hydroxystearate 1%, Ligalub PEG 400 MO 30%, Bentone 38 1.2%, Rapeseed oil methyl ester 57.3%
[13] = Table 6 OD formulation: IMS 2%, Lithium hydroxystearate 0%, Ligalub PEG 400 MO 15%, Solvesso 200 ND 73%
[14] = Table 6 OD formulation: IMS 2%, Lithium hydroxystearate 1%, Ligalub PEG 400 MO 15%, Solvesso 200 ND 72%
[15] = Table 7 OD formulation: IMS 0.5%, Lithium hydroxystearate 0%, Ligalub 12 GE 30%, Bentone 38 1.2%, Rapeseed oil methyl ester 58.3%
[16] = Table 7 OD formulation: IMS 0.5%, Lithium hydroxystearate 1%, Ligalub 12 GE 30%, Bentone 38 1.2%, Rapeseed oil methyl ester 57.3%
[17] = Table 8 OD formulation: IMS 0.5%, Lithium hydroxystearate 0%, Ligalub 71 KE 15%, Solvesso 200 ND 74.5%
[18] = Table 8 OD formulation: IMS 0.5%, Lithium hydroxystearate 1%, Ligalub 71 KE 15%, Solvesso 200 ND 73.5%
[19] = Table 9 OD formulation: IMS 0.5%, Lithium hydroxystearate 0%, Ligalub 71 KE 30%, Bentone 38 1.2%, Rapeseed oil methyl ester 58.3%
[20] = Table 9 OD formulation: IMS 0.5%, Lithium hydroxystearate 1%, Ligalub 71 KE 30%, Bentone 38 1.2%, Rapeseed oil methyl ester 57.3%

In the case of `CCCCCCC(O)CCCCCCCCCCC(=O)[O-].[Li+]` (stereo not drawn) [lithium hydroxystearate], the “stabilizing effect on the sodium salt of iodosulfuron” value (hydroxystearate as thickener in oil-based liquid formulations of iodosulfuron-methyl sodium salt) is reported as “particularly significantly stabilizing effect”.

With `COC(=O)c1ccc(I)cc1S(=O)(=O)[N-]C(=O)Nc1nc(C)nc(OC)n1.[Na+]` [IMS, iodosulfuron-methyl sodium salt] the “Degradation of IMS after 1 week at 54° C.” value [1] was −78.3%, the “Degradation of IMS after 4 weeks at 40° C.” value [1] was −46.4% and the “Degradation of IMS after 8 weeks at 40° C.” value [1] was −69.7%. The “Degradation of IMS after 12 weeks at 35° C.” value (shortened to “Degradation of IMS … at 35° C.”) [1] was −57.8%, the “Degradation of IMS after 1 week at 54° C.” value [2] was −23.9% and the “Degradation of IMS after 4 weeks at 40° C.” value [2] was −5%. For the same compound, the “Degradation of IMS after 8 weeks at 40° C.” value [2] was −8.7%, the “Degradation of IMS … at 35° C.” value [2] was −6.3% and the “Degradation of IMS after 2 weeks at 54° C.” value [3] was −87.9%. For the same compound, the “Degradation of IMS after 4 weeks at 40° C.” value [3] was −29.9%, the “Degradation of IMS after 2 weeks at 54° C.” value [4] was −32.2% and the “Degradation of IMS after 4 weeks at 40° C.” value [4] was −7.4%. For the same compound, the “Degradation of IMS after 2 weeks at 54° C.” value [5] was −28%, the “Degradation of IMS after 4 weeks at 40° C.” value [5] was −3.4% and the “Degradation of IMS after 2 weeks at 54° C.” value [6] was −14.7%. For the same compound, the “Degradation of IMS after 4 weeks at 40° C.” value [6] was −3.6%, the “Degradation of IMS after 2 weeks at 54° C.” value [7] was −34.6% and the “Degradation of IMS after 4 weeks at 40° C.” value [7] was −5.2%. The “Degradation of IMS after 2 weeks at 54° C.” value [8] was −13.1%, the “Degradation of IMS after 4 weeks at 40° C.” value [8] was −0.2% and the “Degradation of IMS after 2 weeks at 54° C.” value [9] was −93.2%. For the same compound, the “Degradation of IMS after 4 weeks at 40° C.” value [9] was −34.9%, the “Degradation of IMS after 2 weeks at 54° C.” value [10] was −37.8% and the “Degradation of IMS after 4 weeks at 40° C.” value [10] was −7.2%. For the same compound, the “Degradation of IMS after 2 weeks at 54° C.” value [11] was −87.4%, the “Degradation of IMS after 4 weeks at 40° C.” value [11] was −51.6% and the “Degradation of IMS after 8 weeks at 40° C0” value [11] was −77.2%. The “Degradation of IMS … at 35° C.” value [11] was −66.8%, the “Degradation of IMS after 2 weeks at 54° C.” value [12] was −45.8% and the “Degradation of IMS after 4 weeks at 40° C.” value [12] was −14.8%. The “Degradation of IMS after 8 weeks at 40° C0” value [12] was −21%, the “Degradation of IMS … at 35° C.” value [12] was −13.6% and the “Degradation of IMS after 2 weeks at 54° C.” value [13] was −81.8%. For the same compound, the “Degradation of IMS after 4 weeks at 40° C.” value [13] was −32.9%, the “Degradation of IMS after 2 weeks at 54° C.” value [14] was −32.7% and the “Degradation of IMS after 4 weeks at 40° C.” value [14] was −3.2%. The “Degradation of IMS after 1 week at 54° C.” value [15] was −42.4%, the “Degradation of IMS after 4 weeks at 40° C.” value [15] was −76.6% and the “Degradation of IMS after 8 weeks at 40° C.” value [15] was −65.9%. The “Degradation of IMS … at 35° C.” value [15] was −55.7%, the “Degradation of IMS after 1 week at 54° C.” value [16] was −11.8% and the “Degradation of IMS after 4 weeks at 40° C.” value [16] was −3.6%. The “Degradation of IMS after 8 weeks at 40° C.” value [16] was −4.7%, the “Degradation of IMS … at 35° C.” value [16] was −5.3% and the “Degradation of IMS after 2 weeks at 54° C.” value [17] was −66.6%. The “Degradation of IMS after 4 weeks at 40° C.” value [17] was −65%, the “Degradation of IMS after 2 weeks at 54° C.” value [18] was −9.86% and the “Degradation of IMS after 4 weeks at 40° C.” value [18] was −5.6%. For the same compound, the “Degradation of IMS after 1 week at 54° C.” value [19] was −75.8%, the “Degradation of IMS after 4 weeks at 40° C.” value [19] was −39.6% and the “Degradation of IMS after 8 weeks at 40° C.” value [19] was −63.6%. The “Degradation of IMS … at 35° C.” value [19] was −54.6%, the “Degradation of IMS after 1 week at 54° C.” value [20] was −11.4% and the “Degradation of IMS after 4 weeks at 40° C.” value [20] was −2.3%. For the same compound, the “Degradation of IMS after 8 weeks at 40° C.” value [20] was −3% and the “Degradation of IMS … at 35° C.” value [20] was −3%.
